Earlier results, collected in US11491120B2, “Pharmacological prophylactics against stress-induced affective disorders in females” (The Trustees of Columbia University in the City of New York, priority 2017, dated 2022).

Test system: NMDAR
Details: cited from earlier work

In the case of `CN[C@]1(c2ccccc2Cl)CCCCC1=O` [(S)-ketamine], the “Antagonism of the NMDAR, relative strength” value is given as “four-fold stronger antagonist”.
